Converted amounts (≈) assume the structure as drawn. Where two headings read alike, the source gives them in different places.
Key:
[1] = tested on: Staphylococcus aureus (ATCC # 29213); assay: Broth microdilution MIC, S. aureus; format: cell-based; conditions: for MIC: Staphylococcus aureus, ATCC29213
Method: (§1) A broth microdilution assay is used to assess the antimicrobial activity of the compounds. […] Microorganisms tested include Staphylococcus aureus (ATCC # 29213), Enterococcus faecalis (ATCC # 29212), Pseudomonas aeruginosa (ATCC # 27853), and Escherichia coli (ATCC # 25922). The assay is performed in two growth media, Mueller Hinton Broth and Trypticase Soy Broth. A blood (Tsoy/5% sheep blood) agar plate is inoculated from frozen stocks maintained in T soy broth containing 10% glycerol and incubated overnight at 37° C. Colonies are suspended in sterile broth so that the turbidity matches the turbidity of a 0.5 McFarland standard. The inoculum is diluted 1:10 in sterile broth (Mueller Hinton or Trypticase soy) and 195 ul is dispensed per well of a 96-well plate. The compounds to be tested, dissolved in DMSO, are added to the wells in 5 ul volume at the following concentrations: 25, 12.5, 6.25, 3.125, 1.56 and 0.78 ug/ml in duplicate. Additional concentrations are tested if required. 5 ul of DMSO added to duplicate wells are the vehicle control. Serial dilutions of positive control compounds, vancomycin (E. faecalis and S. aureus) and tobramycin (E. coli and P. aeruginosa), are included in each run. After 24 hours of incubation at 37° C., plates are read at OD600 on a Molecular Devices SpectraMax Plus Spectrophotometer. Average OD600 values are computed using SOFTmax Pro Software (Molecular Devices) and MIC values are determined by linear regression analysis using Prism version 3.02 (Graph Pad Software, San Diego). The MIC is defined as the concentration of compound required to produce an OD600 reading equivalent to 10% of the vehicle control reading.

[2] = tested on: Pseudomonas aeruginosa (ATCC # 27853); assay: Broth microdilution MIC, P. aeruginosa; format: cell-based; conditions: for MIC: Pseudomonas aeruginosa, ATCC27853
Method: as §1

Weight loss screen = format: in vivo, Balb/C mice; conditions: 60 mg/kg intraperitoneally
Method: Balb/C mice (Jackson Labs) are utilized for the initial weight loss screening. Animals are housed in temperature and 12 hour day/night cycle rooms and fed mouse chow and water ad lib. Three mice are utilized for each compound tested with vehicle controls in triplicate per experiment. For the experiments, mice are housed separately for each compound tested three mice to a cage. Compounds are diluted in DMSO at 10 mg/ml and mice are injected intraperitoneally with 60 mg/kg in approximately 100 μl of DMSO or with vehicle alone. Mice are observed and weighed daily; average weights and standard errors are computed with Excel (Microsoft). The experiment continues until treated animals reach their pretreatment weights. Select compounds are tested in animals housed in metabolic cages. Dosing of animals are identical to the screening experiments with three animals to a single metabolic cage. Animal weights, water and food consumption, and urine and feces production are measured daily.

[3] = tested on: MCF-7 human breast cancer cells; assay: Crystal violet cell growth assay; format: cell-based; conditions: MCF7, MCF-7, 72 hours, read-out: Cr. Violet (IC50)
Method: The crystal violet assay measures cell growth but not cytotoxicity. This assay employs crystal violet staining of fixed cells in 96-well plates with subsequent solubilization and measurement of OD490 on a spectrophotometer. The OD490 corresponds to cell growth per unit time measured. Cells are treated with the compounds of interest or vehicle controls and IC50 for each compound is computed.
To measure the cytotoxicity of specific compounds against cancer cells, 5×10^4 MCF-7 human breast cancer cells, obtained from the American Type Culture Collection are plated per well in 24 well plates in DMEM medium with 10% fetal bovine serum, penicillin, and streptomycin. Following overnight culture at 37° C. and 5% CO2, the compounds to be tested, dissolved in DMSO, are added to the wells in 1 μl volume at the following concentrations: 50, 40, 30, 20, and 10 μg/ml in triplicate. Additional concentrations are tested if required. 1 μl of DMSO is added to triplicate wells are the vehicle control. C75 is run at 10, and 5 μg/ml in triplicate as positive controls.
After 72 hours of incubation, cells are stained with 0.5 ml of Crystal Violet stain (0.5% in 25% methanol) in each well. After 10 minutes, wells are rinsed, air dried, and then solubilized with 0.5 ml 10% sodium dodecylsulfate with shaking for 2 hours. Following transfer of 100 μl from each well to a 96-well plate, plates are read at OD490 on a Molecular Devices SpectraMax Plus Spectrophotometer Average OD490 values are computed using SOFTmax Pro Software (Molecular Devices) and IC50 values are determined by linear regression analysis using Prism version 3.02 (Graph Pad Software, San Diego).

[4] = tested on: Enterococcus faecalis (ATCC # 29212); assay: Broth microdilution MIC, E. faecalis; format: cell-based; conditions: for MIC: Enterococcus faecalis, ATCC29212
Method: as §1

[5] = tested on: Escherichia coli (ATCC # 25922); assay: Broth microdilution MIC, E. coli; format: cell-based; conditions: for Ecoli/MH (MIC): Mueller Hinton Broth; for Ecoli/Tsoy (MIC): Trypticase Soy Broth
Method: as §1

Weight loss, DIO = format: in vivo; conditions: 20 mg/kg
[6] = Mueller Hinton Broth, read-out: SA/MH (MIC)
[7] = Trypticase Soy Broth, read-out: SA/Tsoy (MIC)
[8] = Mueller Hinton Broth, read-out: PSAE/MH (MIC)
[9] = Trypticase Soy Broth, read-out: PSAE/Tsoy (MIC)
[10] = Trypticase Soy Broth, read-out: EF/Tsoy (MIC)

Structure (SMILES) | MIC [1, 6] | MIC [1, 7] | MIC [2, 8] | MIC [2, 9] | IC50 [3] | MIC [4, 10] | Ecoli/MH (MIC) [5] | Ecoli/Tsoy (MIC) [5] | Weight Loss (Weight loss screen; day 4) | EF/MH (MIC) ([4]; Mueller Hinton Broth) | other results
CCCCCCCCC1OC(=O)C(OCC(=O)OCC)=C1C(=O)OCC (stereo not drawn) [Compound 3] | 150 µg/mL (≈ 405 µM) | 146 µg/mL (≈ 394 µM) | 173 µg/mL (≈ 467 µM) | 186 µg/mL (≈ 502 µM) | 35.4 µg/mL (≈ 95.6 µM) | 135 µg/mL (≈ 364 µM) |  |  |  |  | Weight Loss (Weight loss screen; day 1, printed with + sign): 60 mg/kg: +1.8% (day 1); MIC ([4]; Mueller Hinton Broth, read-out: EF/MH (MIC)): 100 µg/mL (≈ 270 µM)
C=CCOC1=C(C(=O)OCC)C(CCCCCCCC)OC1=O (stereo not drawn) [Compound 6] |  |  |  |  | 22 µg/mL (≈ 67.8 µM) |  |  |  |  |  | 
CCCCC1OC(=O)C(O)=C1C(=O)OCC (stereo not drawn) [Compound 2] |  |  | 155 µg/mL (≈ 679 µM) | 210 µg/mL (≈ 920 µM) | 41.9 µg/mL (≈ 184 µM) | 163 µg/mL (≈ 714 µM) | Neg | Neg | 60 mg/kg: 12.3% (day 4) | Neg | SA/MH (MIC) ([1]; Mueller Hinton Broth): Neg; SA/Tsoy (MIC) ([1]; Trypticase Soy Broth): Neg; Weight Loss DIO (Weight loss, DIO; day 2): DIO: 20 mg/kg: 3.0% (day 2)
CCCCCCCCC1OC(=O)C(OC)=C1C(=O)OCC (stereo not drawn) [Compound 4] |  |  |  |  | 10.7 µg/mL (≈ 35.9 µM) |  |  |  |  |  | 
CCCCCCCCC1OC(=O)C(=O)C1C(=O)OCC (stereo not drawn) [Compound 1] | 32 µg/mL (≈ 113 µM) | 25 µg/mL (≈ 87.9 µM) |  | 103 µg/mL (≈ 362 µM) | 28 µg/mL (≈ 98.5 µM) | 42 µg/mL (≈ 148 µM) | Neg | Neg | 60 mg/kg: 9.7% (day 4) | Neg | PSAE/MH (MIC) ([2]; Mueller Hinton Broth): Neg; Weight Loss DIO (Weight loss, DIO; day 3): DIO: 20 mg/kg: 4.6% (day 3)
CCCCCCCCC1OC(=O)C(OCc2ccccc2)=C1C(=O)OCC (stereo not drawn) [Compound 5] |  |  |  |  | 17.1 µg/mL (≈ 45.7 µM) |  |  |  |  |  | 
